Laboratory results: patent US20200016155A1, “COMPOSITIONS AND TREATMENT OF HEART DEFICIENCY IN NON-HUMAN ANIMALS” (CEVA SANTE ANIMALE, priority 2007, published 2020)
Read-outs that look alike come from different tables or passages of the source.

Columns and labels:
[1] = test system: aldosterone effect on log([Na+]urinary×10/[K+]urinary); assay: Anti-aldosterone activity model (Hofman): urinary log([Na+]x10/[K+]) in dogs given aldosterone; assay type: in vivo, dog; details: for inhibition of the effect of aldosterone on log ([Na+]urinary×10/[K+]urinary): first 6 hours and 12 hours after dosage
Protocol: The model for assessing the anti-aldosterone activity as described by Hofman L. M et al. (1975, The Journal of Pharmacology and Experimental Therapeutics. 194, 450-456) was used. […] A preliminary study was performed in order to determining the ED80 value for the natriuretic effect of aldosterone on its own. […] An elimination period of at least 48 hours was left between each administration.
The dogs described above were allocated to different treatment groups (A, B, C, D, and E) and a rest period was left between treatments.
A negative control group A only received the pharmaceutical excipient. The positive control group B only received 3 μg/kg of aldosterone. […] 200 g food was then given immediately after treatment.
The tubes were centrifuged rapidly at 1500 rpm for 10 minutes (at a temperature of +4° C.±2° C.), and the plasma was distributed in two propylene tubes (1.2 mL). The samples were frozen and kept in the dark at approx. −80° C. On the day of the fest, the bladders of the animals were emptied by catherisation, then 6 and 24 hours after treatment. Also, the urine was collected during the time periods ranging from T0-T6h; T6h-T12h and T12h-T24h.
The sodium and potassium contents in urines were determined using […]. […] According to this method 500 μL plasma were mixed with ethyl acetate (80/20,V/V) as solvents. […] The compounds and the internal standard (i.e. methyl-testosterone) were separated on a Kromasil C18 column. The quantification levels were 10 μg/L for all compounds within +/−14% variation.
E0, Elog ({Na+)urinary×10/[K+}) max dose and ED50 were obtained by nonlinear regression, and n is the Hill coefficient describing the dose effect relation.

[2] = Plasmatic potassium (kaliemia) measurements during the clinical studies; assay type: in vivo, dog
Protocol: The plasmatic potassium concentrations (mmol/L) were measured during the treatments. […] Only sporadic case of low or moderate hyperkaliemia could be observed and these events were transient. Indeed, these hyperkaliemia events could only be observed a couple of times during examinations, and some of them were present on day D1, before the beginning of the treatment.

[3] = test system: dogs affected by heart failure; assay: Multicentre randomised double-blind placebo-controlled clinical studies in dogs affected by heart failure; assay type: in vivo, dog; details: group of dogs on spironolactone
Protocol: Multicentre, randomised, double-blind placebo-controlled clinical studies were conducted.
For gauging the effects of the treatment, both groups were examined five times, i.e., on the first day of treatment (D1), then on the 84th day (D84), […], 252nd day (D252) and 336th day (D336). This examination consisted of a clinical examination of the dogs, urine and blood analyses, and a radiograph. Moreover, an echocardiograph was taken on days D1, D168 and D336.
Also, the effects of the treatment were assessed on the symptoms such as cough and mobility, as well as on the prevention of symptoms such as dyspnoea, pulmonary edema, and tolerance to effort.

[4] = test system: human patient; details: cited from earlier work
[5] = test system: patients affected by severe heart failure; details: 25 mg spironolactone with CEI, ansa diuretics, sometimes digoxin; 822 patients; cited from earlier work
[6] = Pharmacokinetic study with 22-14C spironolactone, dog; assay type: in vivo; details: dogs, after 4 hour oral administration
[7] = Pharmacokinetic study with 22-14C spironolactone, monkey; assay type: in vivo; details: monkeys, after 4 hour oral administration
[8] = Pharmacokinetic study with 22-14C spironolactone, rat; assay type: in vivo; details: rats, after 4 hour oral administration

C[C@]12CCC(=O)C=C1CC[C@@H]1[C@@H]2[C@@H](O)C[C@]2(C=O)[C@@H](C(=O)CO)CC[C@@H]12 [aldosterone]
E0 (control group) ([1]; basic effect after aldosterone on its own (positive control), 0 to 6 hours): 0.527

CC(=O)S[C@@H]1CC2=CC(=O)CC[C@]2(C)[C@H]2CC[C@@]3(C)[C@@H](CC[C@@]34CCC(=O)O4)[C@H]12 [spironolactone, 7α-acetylthio-3-oxo-17α-pregn-4-ene-21,17-carbolactone]
natriuretic responses ([1]; 0.8 mg/kg): no effect on certain dogs | natriuretic responses ([1]; 2 mg/kg): completely reversed | inhibition of the effect of aldosterone on log ([Na+]urinary×10/[K+]urinary) ([1]; 2 mg/kg): complete reversal of the effect | natriuretic responses ([1]; 8 mg/kg): other increases in the elimination of Na were observed | inhibition of the effect of aldosterone on log ([Na+]urinary×10/[K+]urinary) ([1]; 8 mg/kg): complete reversal of the effect | E(0.8 mg/kg)−E0 ([1]; dose 0.8 mg/kg): 0.3233 | restoring of the effect ([1]; dose 0.8 mg/kg): 57% | E(2 mg/kg) ([1]; dose approx. 2 mg/kg): 0.4933 | restoring of the effect ([1]; dose approx. 2 mg/kg): 88% | log ([Na+]urinary×10/[K+]urinary), average ([1]; urine collected 0 to 6 hours after administration of spironolactone, from 0.70±0.22): 1.14±0.18 | variation in kaliemia ([2]; 2 mg/kg/day, dogs): did not cause any variation in kaliemia or only low transient variations in kaliemia | Low and transient hyperkaliemia (5.9 to 6.4 mmol/L), cases ([2]; 2-month clinical study (4 analyses)): 3 | Low and transient hyperkaliemia (5.9 to 6.4 mmol/L), cases ([2]; 3-month clinical study (6 analyses)): 5 | Low and transient hyperkaliemia (5.9 to 6.4 mmol/L), cases ([2]; 12-month clinical study (5 analyses)): 3 | progression of average plasmatic potassium (kaliemia) ([2]; FIG. 9, spironolactone 2 mg/kg/day + CEI): stable kaliemia | clinical symptoms [3]: improved symptoms such as cough and mobility | Therapeutic effect in human ([4]; 12.5 mg/day): Significant reduction in morbidity/ | Therapeutic effect in human ([4]; 25 mg/day): Significant reduction in morbidity/ | Therapeutic effect in human ([4]; 50 mg/day): Significant reduction in morbidity/ | Therapeutic effect in human ([4]; 75 mg/day): Significant reduction in morbidity/ | dead in the spironolactone group, percentage [5]: 35% | number of dead in the spironolactone group [5]: 284 | plasma radioactivity percentage [6]: 76% | plasma radioactivity percentage [7]: 33% | plasma radioactivity percentage [8]: 66%
